Data: patent US7045512B2 (priority 2003, dated 2006)

Assays:
[1] = test system: Erysiyphe graminis f.sp. hordei; assay: Foliar spray for the control of barley powdery mildew; format: in vivo; conditions: 300 ppm, greenhouse foliar spray, barley plants
Protocol: Foliar Spray for the Control of Barley Powdery Mildew caused by Erysiyphe graminis f.sp. hordei
Technical grade material at defined ppm rates (w/v) in an acetone:water mixture (1:9) containing 0.1% Tween 20 (v/v) is sprayed to near run-off onto 7-days-old greenhouse-grown barley plants (var. “Robust”) at the cotyledon stage. Treated plants are inoculated within 24 hours by brushing mildew-infected plants over the treated plants. Inoculated plants are kept in the greenhouse for 6–8 days for disease development. Disease severity is examined and the % control is calculated as [% disease on untreated plants−% disease on treated plants]/% diseases in untreated plants. The results of these tests are shown in Table 2A below under the heading “Foliar Application—Barley Powdery Mildew”.

Helminthosporium sativum = assay: Foliar spray for the control of barley blotch; format: in vivo; conditions: 300 ppm, greenhouse foliar spray, barley plants
Protocol: Foliar Spray for the Control of Barley Blotch Caused by Helminthosporium sativum
Technical grade material at defined ppm rates (w/v) in an acetone:water mixture (1:9) containing 0.1% Tween 20 (v/v) is sprayed to near run-off onto 7-days-old greenhouse-grown barley plants (var. “Robust”) at the cotyledon stage. Treated plants are inoculated within 24 hours from spraying with an aqueous suspension of approximately 15,000 conidia/ml of Helminthosporium sativum grown on artificial medium. Inoculated plants are placed into a high humidity chamber for 24 hr and then transferred to the greenhouse for 4–5 days for disease development. Disease severity is examined and the % control is calculated as [% disease on untreated plants−% disease on treated plants]/% disease on untreated plants.
The results of these tests are shown in Table 2A below under the heading “Foliar Application—Barley Blotch”.

Erysiyphe polygoni = assay: Foliar spray for the control of bean powdery mildew; format: in vivo; conditions: 300 ppm, greenhouse foliar spray, Pinto bean plants
Protocol: Foliar Spray for the Control of Bean Powdery Mildew Caused by Erysiyphe polygoni
Technical grade material at defined ppm rates (w/v) in an acetone:water mixture (1:9) containing 0.1% Tween 20 (v/v) is sprayed to near run-off onto greenhouse-grown Pinto bean plants (var. “Othello”) in the second leaf stage. Treated plants are inoculated within 24 hours by brushing mildew-infected plants over treated plants. Inoculated plants are kept in the greenhouse for two weeks for disease development. Disease severity is examined and the % control is calculated as [% disease on untreated plants−% disease on treated plants]/% disease on untreated plants. The results of these tests are shown in Table 2A below under the heading “Foliar Application—Bean Powdery Mildew”.

Uromyces appendiculatus = assay: Foliar spray for the control of bean rust; format: in vivo; conditions: 300 ppm
Protocol: Foliar Spray for the Control of Bean Rust Caused by Uromyces appendiculatus
Technical grade material at defined ppm rates (w/v) in an acetone:water mixture (1:9) containing 0.1% Tween 20 (v/v) is sprayed to near run-off onto 10-days-old greenhouse-grown Pinto bean plants (var. “Othello”) in the second leaf stage. Treated plants are inoculated within 24 hours with an aqueous suspension of approximately 20,000 uredospores of Uromyces appendiculatus harvested from rust-infected plants. Inoculated plants are placed into a high humidity chamber for 24 hr and then transferred to the greenhouse for two weeks for disease development. Disease severity is examined and the % control is calculated as [% disease on untreated plants−% disease on treated plants]/% disease on untreated plants. The results of these tests are shown in Table 2A below under the heading “Foliar Application—Bean Rust”.

Phytophthora infestans [2] = format: in vivo; conditions: 300 ppm, greenhouse foliar spray, tomato plants
Barley Powdery Mildew = assay: Soil drench for the control of barley powdery mildew; format: in vivo, Erysiyphe graminis f.sp. hordei; conditions: 300 ppm, greenhouse soil drench
Protocol: (§1) Soil Drench for the Control of Barley or Cucumber Powdery Mildew
(§2) Technical grade material formulated as described for foliar sprays is dispensed at defined rates (ml/cm^3) into the soil in the pots for barley and cucumber in the stages as described for the foliar sprays. Treated plants are inoculated, within 24 hours with the respective powdery mildew species as described for the foliar spray tests. Inoculated plants are kept in the greenhouse for 6–8 days for disease development. Disease severity is examined and the % control is calculated as [% disease on untreated plants−% disease on treated plants]/% disease on untreated plants. The results of these tests are shown in Table 2B below under the heading “Drench Application—Barley Powdery Mildew” and “Drench Application—Cucumber Powdery Mildew”.

Cucumber Powdery Mildew = assay: Soil drench for the control of cucumber powdery mildew; format: in vivo; conditions: 300 ppm, greenhouse soil drench
Protocol: as §1, §2

Botrytis cinerea [3] = assay: microbe, parasite or virus in culture; format: cell-based
Colletotrichum gossypii = format: cell-based
[4] = test system: Cercosporidium personatum; format: cell-based
Fusarium nivale = assay: microbe, parasite or virus in culture; format: cell-based
Phytophthora infestans [5] = assay: microbe, parasite or virus in culture; format: cell-based; conditions: in vitro, rate 100 ppm, 48 hours
Pythium ultimum = assay: microbe, parasite or virus in culture; format: cell-based
Rhizoctonia solani = assay: microbe, parasite or virus in culture; format: cell-based
Sclerotinia minor = format: cell-based
Sclerotium rolfsii = format: cell-based
Pyricularia oryzae = assay: whole plant or invertebrate; format: in vivo; conditions: 300 ppm, greenhouse foliar spray, rice plants
Botrytis cinerea [6] = assay: Foliar spray for the control of geranium gray mold; format: in vivo; conditions: 300 ppm, greenhouse foliar spray, geranium plants
Protocol: Foliar Spray for the Control of Geranium Gray Mold Caused by Botrytis cinerea
Technical grade material at defined ppm rates (w/v) in an acetone:water mixture (1:9) containing 0.1% Tween 20 (v/v) is sprayed to near run-off onto mature greenhouse-grown geranium plants (var. “Pinto White”) in the second leaf stage. Treated plants are inoculated within 24 hours with an aqueous suspension of approximately 100,000 conidia/ml of Botrytis cinerea grown on artificial medium. Inoculated plants are placed into a high humidity chamber for 5 days and then transferred to the greenhouse for one day for disease development. Disease severity is examined and the % control is calculated as [% disease on untreated plants−% disease on treated plants]/% disease on untreated plants. The results of these tests are shown in Table 2A below under the heading “Foliar Application—Geranium Gray Mold”.

[7] = screened against rust on beans as foliar-applied eradicant

Compound | Foliar Application (Percent Control) Barley Powdery Mildew [1] [%] | Foliar Application (Percent Control) Barley Blotch (Helminthosporium sativum) [%] | Foliar Application (Percent Control) Bean Powdery Mildew (Erysiyphe polygoni) [%] | Foliar Application (Percent Control) Bean Rust (Uromyces appendiculatus; [7]) | Foliar Application (Percent Control) Tomato Late Blight (Phytophthora infestans [2]) [%] | Drench Application (Percent Control) Barley Powdery Mildew (Barley Powdery Mildew) [%] | Drench Application (Percent Control) Cucumber Powdery Mildew (Cucumber Powdery Mildew) [%] | Percent Control Botrytis cinerea (Botrytis cinerea [3]) [%] | Percent Control Colletotricum gossypii (Colletotrichum gossypii) [%] | Percent Control Cercosporidium personatum [4] [%] | Percent Control Fusarium nivale (Fusarium nivale) [%] | Percent Control Phytophthora infestants (Phytophthora infestans [5]) [%] | Percent Control Pythium ultimum (Pythium ultimum) [%] | Percent Control Rhizoctonia solani (Rhizoctonia solani) [%] | Percent Control Sclerotinia minor (Sclerotinia minor) [%] | Percent Control Sclerotium rolfsii (Sclerotium rolfsii) [%] | Foliar Application (Percent Control) Rice Blast (Pyricularia oryzae) [%] | Foliar Application (Percent Control) Bean Rust (Uromyces appendiculatus; greenhouse foliar spray, Pinto bean plants) [%] | Foliar Application (Percent Control) Geranium Gray Mold (Botrytis cinerea [6]) [%]
CCC(C)OC(=O)NN(C(=O)C(F)(F)F)c1ccc(Sc2ccccc2)cc1 (centres unmarked) [Compound 4] | 0 | 0 | 88 | 0(e) % | 0 | 0 | 0 | 75 | 15 | 65 | 50 | 100 | 15 | 95 | 50 |  |  |  | 
COC(=O)NNc1ccc(Oc2cccnc2)cc1 [Compound 5] | 0 | 0 | 0 | 0(e) % |  | 0 | 0 | 25 | 100 | 0 | 90 | 20 | 70 | 0 | 100 | 100 |  |  | 
CC(C)OC(=O)NN(C(=O)C(F)(F)F)c1ccc(Oc2cccc(Cl)c2)nc1 [Compound 6] | 0 | 97 |  |  | 0 | 0 | 0 | 98 |  |  | 71 | 100 | 25 | 100 |  | 98 | 92 | 0 | 82
